By pIC50 is commonly meant the negative decadic logarithm of the IC50, by convention in mol/L. Read a low pIC50 as a high IC50.

The target in assay [1] is T1, Interleukin-23 subunit alpha/receptor (UniProt Q9NPF7+Q5VWK5).
T1 sequence (Q9NPF7 whole entry): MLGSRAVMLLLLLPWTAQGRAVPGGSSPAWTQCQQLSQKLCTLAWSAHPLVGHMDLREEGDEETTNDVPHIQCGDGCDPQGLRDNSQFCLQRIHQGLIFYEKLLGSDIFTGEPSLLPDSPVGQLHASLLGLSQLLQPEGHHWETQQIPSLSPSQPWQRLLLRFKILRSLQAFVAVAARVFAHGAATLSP
T1 sequence (Q5VWK5 whole entry): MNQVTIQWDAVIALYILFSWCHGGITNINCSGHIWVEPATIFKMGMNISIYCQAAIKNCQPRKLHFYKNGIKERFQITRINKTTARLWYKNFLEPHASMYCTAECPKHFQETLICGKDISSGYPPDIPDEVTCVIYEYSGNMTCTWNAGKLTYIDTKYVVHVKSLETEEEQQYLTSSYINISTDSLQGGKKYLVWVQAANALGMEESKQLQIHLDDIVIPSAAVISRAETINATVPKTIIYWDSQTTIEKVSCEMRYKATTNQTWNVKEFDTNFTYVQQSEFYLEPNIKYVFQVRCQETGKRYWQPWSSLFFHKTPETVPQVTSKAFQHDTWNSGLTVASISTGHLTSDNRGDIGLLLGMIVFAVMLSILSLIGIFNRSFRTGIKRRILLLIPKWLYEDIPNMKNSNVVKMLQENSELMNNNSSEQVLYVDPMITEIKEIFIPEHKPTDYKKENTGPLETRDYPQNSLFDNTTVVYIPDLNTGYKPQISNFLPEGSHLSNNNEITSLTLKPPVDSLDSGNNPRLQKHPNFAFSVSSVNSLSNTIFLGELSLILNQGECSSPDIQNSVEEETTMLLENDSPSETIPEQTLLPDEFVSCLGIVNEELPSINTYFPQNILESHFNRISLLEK
The assay is described as follows: ELISA assay for specific human IL-23R inhibitors. On the procedure:
(§1) A 384-well plate was coated with 50 µl/well of human IL-23 at a final concentration of […] and incubated overnight at 4°C. The wells were washed 3 times with […] wash buffer and blocked with […] blocking buffer for 60 minutes at room temperature and washed again. 20 µl of serially diluted test peptides was added to each well and subsequently 20 µl of recombinant human IL-23R-Fc chimera at final concentration of […]. The plate was incubated for 60 minutes at room temperature. After the wells were washed, bound IL-23R-Fc was detected with goat anti-hu- IgG 1 -HRP antibody. Signals were visualized with QuantaBlu Fluorogenic Peroxidase Substrate.
(In general: An ELISA detects its analyte on a solid surface through an enzyme-linked reagent.)

The target of assay [2] is Interleukin-23 subunit alpha/receptor (UniProt Q5VWK5). Put plainly: ELISA assay for specific human IL-23R inhibitors. How it is done:
as §1

Structures are written as SMILES. pIC50: −log10 of the molar value. Bridge positions count the residues as written; N and C are the ends. Square brackets hold non-standard residues; d marks the D form. Peptide text beside a SMILES is read from it. ξ: configuration not given here. Trp(1-Me) = Cn1cc(C[C@H](N)C(=O)O)c2ccccc21; 2Nal = N[C@@H](Cc1ccc2ccccc2c1)C(=O)O; ξThr(3R) = C[C@@H](O)C(N)C(=O)O; Thp = NC1(C(=O)O)CCOCC1; ξD = NC(CC(=O)O)C(=O)O; ξOrn = NCCCC(N)C(=O)O; Aib = CC(C)(N)C(=O)O; ξK = NCCCCC(N)C(=O)O

`COc1ccc(C[C@@H]2NC(=O)[C@H](C)NC(=O)[C@H](CCC(N)=O)NC(=O)[C@H](Cc3c[nH]c4ccccc34)NC(=O)C([C@@H](C)O)NC(=O)[C@H](CC(N)=O)NC(=O)C(N)CCCCNC(=O)C[C@H](C(=O)N[C@@H](CC(N)=O)C(=O)N[C@@H](CC(N)=O)C(=O)O)NC(=O)C(C)(C)NC(=O)[C@H](Cc3ccc4ccccc4c3)NC2=O)cc1` (some centres not stated) [WO2025051920, Example 44] showed a negative-log IC50 (pIC50) in assay [1] of 8.33.
In turn, `COc1ccc(C[C@@H]2NC(=O)[C@H](CCCNC(=N)N)NC(=O)[C@H](CCC(N)=O)NC(=O)[C@H](Cc3cn(C)c4ccccc34)NC(=O)[C@H]([C@@H](C)O)NC(=O)[C@H](CC(N)=O)NC(=O)[C@H](NC(C)=O)CCCCNC(=O)C[C@@H](C(=O)N[C@@H](CC(N)=O)C(=O)N[C@@H](CC(N)=O)C(=O)O)NC(=O)[C@H](CC(C)C)NC(=O)[C@H](Cc3ccc4ccccc4c3)NC2=O)cc1` [WO2025051920, Example 24] had a pIC50 in assay [1] of 8.92.
As to `COc1ccc(C[C@@H]2NC(=O)[C@H](CCCNC(=N)N)NC(=O)[C@H](CCC(N)=O)NC(=O)[C@H](Cc3c[nH]c4ccccc34)NC(=O)[C@H]([C@@H](C)O)NC(=O)[C@H](CC(N)=O)NC(=O)[C@H](NC(C)=O)CCCCNC(=O)C[C@@H](C(=O)N[C@@H](CC(N)=O)C(=O)N[C@@H](CC(N)=O)C(=O)O)NC(=O)[C@H](CCCCN)NC(=O)[C@H](Cc3ccc4ccccc4c3)NC2=O)cc1` [WO2025051920, Example 28], the pIC50 in assay [2] is 8.04.
The same measure, in the same setting: the result for `COc1ccc(C[C@@H]2NC(=O)[C@H](CCCNC(=N)N)NC(=O)[C@H](CCC(N)=O)NC(=O)[C@H](Cc3cn(C)c4ccccc34)NC(=O)[C@H]([C@@H](C)O)NC(=O)[C@H](CC(N)=O)NC(=O)[C@@H](NC(C)=O)CC(=O)NCCCC(C(=O)N[C@@H](CC(N)=O)C(=O)N[C@@H](CC(N)=O)C(=O)O)NC(=O)C(C)(C)NC(=O)[C@H](Cc3c[nH]c4ccccc34)NC2=O)cc1` (some centres not stated) [WO2025051920, Example 36] (Ac-DNT[Trp(1-Me)]QRY(Me)W[Aib][ξOrn]NN-OH; lactam 1-10) reads 7.71; that for `COc1ccc(C[C@@H]2NC(=O)[C@H](CCCNC(=N)N)NC(=O)[C@H](CCC(N)=O)NC(=O)[C@H](Cc3c[nH]c4ccccc34)NC(=O)C([C@@H](C)O)NC(=O)[C@H](CC(N)=O)NC(=O)C(NC(C)=O)CCCCNC(=O)CC(C(=O)N[C@@H](CC(N)=O)C(=O)N[C@@H](CC(N)=O)C(=O)O)NC(=O)C3(CCOCC3)NC(=O)[C@H](Cc3ccc4ccccc4c3)NC2=O)cc1` (stereo partly drawn) [WO2025051920, Example 41] (Ac-[ξK]N[ξThr(3R)]WQRY(Me)[2Nal][Thp][ξD]NN-OH; lactam 1-10), 8.83.
In assay [2], `COc1ccc(C[C@@H]2NC(=O)[C@H](CCCNC(=N)N)NC(=O)[C@H](CCC(N)=O)NC(=O)[C@H](Cc3c[nH]c4ccccc34)NC(=O)[C@H]([C@@H](C)O)NC(=O)[C@H](CC(N)=O)NC(=O)[C@H](NC(C)=O)CC(=O)NCCCC[C@@H](C(=O)N[C@@H](CC(N)=O)C(=O)N[C@@H](CC(N)=O)C(=O)O)NC(=O)C(C)(C)NC(=O)[C@H](Cc3ccc4ccccc4c3)NC2=O)cc1` [WO2025051920, Example 12] showed a pIC50 of 7.83.
In the case of `COc1ccc(C[C@@H]2NC(=O)[C@H](CCCNC(=N)N)NC(=O)[C@H](CCC(N)=O)NC(=O)[C@H](Cc3c[nH]c4ccccc34)NC(=O)C([C@@H](C)O)NC(=O)[C@H](CC(N)=O)NC(=O)C(NC(C)=O)CCCCNC(=O)C[C@H](C(=O)N[C@@H](CC(N)=O)C(=O)N[C@@H](CC(N)=O)C(=O)O)NC(=O)C(C)(C)NC(=O)[C@H](Cc3cccc4ccccc34)NC2=O)cc1` (some centres not stated) [WO2025051920, Example 9], in assay [1], the pIC50 is 8.45.
Regarding `COc1ccc(C[C@@H]2NC(=O)[C@H](CCCNC(=N)N)NC(=O)[C@H](CCC(N)=O)NC(=O)[C@H](Cc3c[nH]c4ccccc34)NC(=O)[C@H]([C@@H](C)O)NC(=O)[C@H](CC(N)=O)NC(=O)[C@@H](NC(C)=O)CC(=O)NCCCC(C(=O)N[C@@H](CC(N)=O)C(=O)N[C@@H](CC(N)=O)C(=O)O)NC(=O)C(C)(C)NC(=O)[C@H](Cc3ccc4ccccc4c3)NC2=O)cc1` (some centres not stated) [WO2025051920, Example 6], in assay [2], the pIC50 is 8.71.
Still for that read-out and setting: to `COc1ccc(C[C@@H]2NC(=O)[C@H](CCCNC(=N)N)NC(=O)[C@H](CCC(N)=O)NC(=O)[C@H](Cc3c[nH]c4ccccc34)NC(=O)[C@H]([C@@H](C)O)NC(=O)[C@H](CC(N)=O)NC(=O)[C@H](NC(C)=O)CCCCNC(=O)C[C@@H](C(=O)N[C@@H](CC(N)=O)C(=O)N[C@@H](CC(N)=O)C(=O)O)NC(=O)[C@H](CCCNC(N)=O)NC(=O)[C@H](Cc3cccc4ccccc34)NC2=O)cc1` [WO2025051920, Example 18] belongs 7.93; to `COc1ccc(C[C@@H]2NC(=O)[C@H](CCCNC(=N)N)NC(=O)[C@H](CCC(N)=O)NC(=O)[C@H](Cc3cn(C)c4ccccc34)NC(=O)[C@H]([C@@H](C)O)NC(=O)[C@H](CC(N)=O)NC(=O)[C@H](NC(C)=O)CCCCNC(=O)C[C@@H](C(=O)N[C@@H](CC(N)=O)C(=O)N[C@@H](CC(N)=O)C(=O)O)NC(=O)[C@@H](Cc3cscn3)NC(=O)[C@H](Cc3ccc4ccccc4c3)NC2=O)cc1` [WO2025051920, Example 25], 8.02; to `COc1ccc(C[C@@H]2NC(=O)[C@H](CCCNC(=N)N)NC(=O)[C@H](CCC(N)=O)NC(=O)[C@H](Cc3c[nH]c4ccccc34)NC(=O)[C@H]([C@@H](C)O)NC(=O)[C@H](CC(N)=O)NC(=O)[C@H](NC(C)=O)CCCCNC(=O)C[C@@H](C(=O)N[C@@H](CC(N)=O)C(=O)N[C@@H](CC(N)=O)C(=O)O)NC(=O)[C@H](CCC(N)=O)NC(=O)[C@H](Cc3ccc4ccccc4c3)NC2=O)cc1` [WO2025051920, Example 30], 8.02.
Still for that read-out and setting: to `COc1ccc(C[C@@H]2NC(=O)C(C)(C)NC(=O)[C@H](CCC(N)=O)NC(=O)[C@H](Cc3c[nH]c4ccccc34)NC(=O)[C@H]([C@@H](C)O)NC(=O)[C@H](CC(N)=O)NC(=O)[C@H](NC(C)=O)CCCCNC(=O)C[C@@H](C(=O)N[C@@H](CC(N)=O)C(=O)N[C@@H](CC(N)=O)C(=O)O)NC(=O)C(C)(C)NC(=O)[C@H](Cc3cccc4ccccc34)NC2=O)cc1` [WO2025051920, Example 21] belongs 7.77; to `COc1ccc(C[C@@H]2NC(=O)[C@H](C(C)C)NC(=O)[C@H](CCC(N)=O)NC(=O)[C@H](Cc3c[nH]c4ccccc34)NC(=O)[C@H]([C@@H](C)O)NC(=O)[C@H](CC(N)=O)NC(=O)[C@H](NC(C)=O)CCCCNC(=O)C[C@@H](C(=O)N[C@@H](CC(N)=O)C(=O)N[C@@H](CC(N)=O)C(=O)O)NC(=O)C(C)(C)NC(=O)[C@H](Cc3ccc4ccccc4c3)NC2=O)cc1` [WO2025051920, Example 31], 8.08.
The same measure, in the same setting: to `COc1ccc(C[C@@H]2NC(=O)[C@H](CCCNC(=N)N)NC(=O)[C@H](CCC(N)=O)NC(=O)[C@H](Cc3c[nH]c4ccccc34)NC(=O)[C@H]([C@@H](C)O)NC(=O)[C@H](CC(N)=O)NC(=O)[C@H](NC(C)=O)CCCCNC(=O)C[C@@H](C(=O)N[C@@H](CC(N)=O)C(=O)N[C@@H](CC(N)=O)C(=O)O)NC(=O)[C@H](CCCNC(N)=O)NC(=O)[C@H](Cc3ccc4ccccc4c3)NC2=O)cc1` [WO2025051920, Example 29] belongs 8.25.
Take `COc1ccc(C[C@@H]2NC(=O)[C@H](CCNC(=N)N)NC(=O)[C@H](CCC(N)=O)NC(=O)[C@H](Cc3c[nH]c4ccccc34)NC(=O)C([C@@H](C)O)NC(=O)[C@H](CC(N)=O)NC(=O)C(N)CCCCCNC(=O)CC[C@H](C(=O)N[C@@H](CC(N)=O)C(=O)N[C@@H](CC(N)=O)C(=O)O)NC(=O)C(C)(C)NC(=O)[C@H](Cc3ccc4ccccc4c3)NC2=O)cc1` (some centres not stated) [WO2025051920, Example 40]: the pIC50 in assay [2] is 8.51.
Compound `COc1ccc(C[C@@H]2NC(=O)[C@H](CCCNC(=N)N)NC(=O)[C@H](CCC(N)=O)NC(=O)[C@H](Cc3cn(C)c4ccccc34)NC(=O)[C@H]([C@@H](C)O)NC(=O)[C@H](CC(N)=O)NC(=O)[C@H](NC(C)=O)CCCCNC(=O)C[C@@H](C(=O)N[C@@H](CC(N)=O)C(=O)N[C@@H](CC(N)=O)C(=O)O)NC(=O)[C@H](CC(C)C)NC(=O)[C@H](Cc3cccc4ccccc34)NC2=O)cc1` [WO2025051920, Example 23] had a negative logarithm of the IC50 (pIC50) in assay [1] of 7.92.
The compound `COc1ccc(C[C@@H]2NC(=O)[C@H](C)NC(=O)[C@H](CCC(N)=O)NC(=O)[C@H](Cc3c[nH]c4ccccc34)NC(=O)[C@H]([C@@H](C)O)NC(=O)[C@H](CC(N)=O)NC(=O)[C@H](NC(C)=O)CCCCNC(=O)C[C@@H](C(=O)N[C@@H](CC(N)=O)C(=O)N[C@@H](CC(N)=O)C(=O)O)NC(=O)[C@H](CCCNC(=N)N)NC(=O)[C@H](Cc3ccc4ccccc4c3)NC2=O)cc1` [WO2025051920, Example 47] had a pIC50 in assay [2] of 8.87.

(Values after BindingDB's records for patent WO2025051920 (Sanofi-Aventis Deutschland, 2025).)
